Earlier results as cited in patent publication US20230120480A1, “METHODS FOR REMOVING CONTAMINANTS FROM PLANT-DERIVED PHARMACEUTICALS” (priority 2021, published 2023).

system: not given

Molecule	Water Soluble?
Cc1cc(O)c2c(c1)OC(C)(C)c1ccc(C)cc1-2 [Cannabiorcool]	No
CCCCCc1cc(O)c2c(c1)OC(C)(C)[C@@H]1CC[C@](C)(O)[C@@H](O)[C@@H]21 [Cannabiripsol]	No
CCCCCc1cc(O)c2c(c1)OC(C)(C)C1=C2C(O)C(C)(O)CC1 (stereo not shown) [Cannabitriol]	No
CCCc1cc(O)c2c(c1)OC(C)(C)C1=C2C(O)C(C)(O)CC1 (stereo not shown) [Cannabitriolvarin]	No
CCCc1cc(O)c2c(c1)OC(C)(C)c1ccc(C)cc1-2 [Cannabivarin]	No
CCCCCc1cc(O)c2c(c1)OC(C)(C)C1CC=C(C)CC21 (stereo not shown) [Delta-8-tetrahydrocannabinol]	No
CCCCCc1cc2c(c(O)c1C(=O)O)[C@@H]1CC(C)=CC[C@H]1C(C)(C)O2 [Delta-8-tetrahydrocannabinolic acid]	Yes
CCCCCc1cc(O)c2c(c1)OC(C)(C)[C@@H]1CCC(C)=C[C@@H]21 [Delta-9-tetrahydrocannabinol, reference compound]	No
CCCCc1cc(O)c2c(c1)OC(C)(C)C1CCC(C)=CC21 (stereo not shown) [Delta-9-tetrahydrocannabinol-C4]	No
CCCCCc1cc2c(c(O)c1C(=O)O)[C@@H]1C=C(C)CC[C@H]1C(C)(C)O2 [Delta-9-tetrahydrocannabinolic acid A]	Yes
CCCCCc1cc(O)c2c(c1C(=O)O)OC(C)(C)[C@@H]1CCC(C)=C[C@@H]21 [Delta-9-tetrahydrocannabinolic acid B]	Yes
CCCCc1cc2c(c(O)c1C(=O)O)[C@@H]1C=C(C)CC[C@H]1C(C)(C)O2 [Delta-9-tetrahydrocannabinolic acid-C4]	Yes
CC1=CC2c3c(O)cc(C)cc3OC(C)(C)C2CC1 (stereo not shown) [Delta-9-tetrahydrocannabiorcol]	No
CC1=CC2c3c(cc(C)c(C(=O)O)c3O)OC(C)(C)C2CC1 (stereo not shown) [Delta-9-tetrahydrocannabiorcolic acid]	Yes
CCCc1cc2c(c(O)c1C(=O)O)[C@@H]1C=C(C)CC[C@H]1C(C)(C)O2 [Delta-9-tetrahydrocannabivarinic acid]	Yes
Cannabifuran	No
Cannbicitran	No
Dehydrocannabifuran	No

system: humans

Molecule	toxicity to humans
CCCCOCCOCCOCc1cc2c(cc1CCC)OCO2 [Piperonyl butoxide]	non-toxic
